From patent US10683267B1, “Antidiabetic compounds” (King Abdulaziz University, priority 2019, dated 2020)
Entries after “also recorded” stand apart in the source; their conditions may differ. Like-named read-outs stand apart in the source and are kept apart here. Marks after values point to notes of the source that are not given here.

Experiments:
DPP-IV enzyme = molecular target: T1, DPP-IV enzyme (Homo sapiens, UniProt P27487); assay: In vitro DPP-IV inhibition assay (Biovision kit, fluorescence); format: biochemical; conditions: for DPP-4 enzyme inhibition activity, in words: SAR discussion
T1 construct: purchased Biovision (Milpitas, Calif., USA)
T1 sequence (P27487 whole entry, species assumed): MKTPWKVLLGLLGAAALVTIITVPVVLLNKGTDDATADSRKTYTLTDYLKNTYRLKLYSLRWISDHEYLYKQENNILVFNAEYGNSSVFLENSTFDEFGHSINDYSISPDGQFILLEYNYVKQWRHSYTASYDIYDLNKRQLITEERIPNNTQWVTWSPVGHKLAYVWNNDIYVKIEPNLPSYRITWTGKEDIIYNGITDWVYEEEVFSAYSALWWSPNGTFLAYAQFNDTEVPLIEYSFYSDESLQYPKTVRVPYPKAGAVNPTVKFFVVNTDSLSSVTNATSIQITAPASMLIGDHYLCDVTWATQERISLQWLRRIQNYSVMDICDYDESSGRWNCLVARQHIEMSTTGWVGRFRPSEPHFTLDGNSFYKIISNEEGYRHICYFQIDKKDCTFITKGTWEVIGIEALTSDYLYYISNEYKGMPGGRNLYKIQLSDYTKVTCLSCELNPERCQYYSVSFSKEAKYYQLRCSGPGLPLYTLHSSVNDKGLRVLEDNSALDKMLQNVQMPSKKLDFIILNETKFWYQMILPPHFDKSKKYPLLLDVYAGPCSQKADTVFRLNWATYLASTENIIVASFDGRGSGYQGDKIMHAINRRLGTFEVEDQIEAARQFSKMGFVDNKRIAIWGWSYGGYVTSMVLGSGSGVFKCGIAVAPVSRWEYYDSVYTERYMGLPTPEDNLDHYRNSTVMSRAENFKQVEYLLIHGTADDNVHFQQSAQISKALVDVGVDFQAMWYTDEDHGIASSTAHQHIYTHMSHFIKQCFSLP
Description: DPP-IV inhibition assay was conducted using a kit purchased from Biovision (Milpitas, Calif., USA). Briefly, DPP-IV enzyme was diluted with Tris buffer and pipetted 50 μl into glass mini-cells. […] Finally a volume of 25 μl of DPP-IV substrate was added into each tube. The fluorescence generated from hydrolysis of the substrate was read at Ex/Em=360/460 nm using Modulus® single tube multimode reader (Promega, USA). Baseline fluorescence was recorded before incubation (R1) and 20 min after incubation (R2).
The standard DPP-IV inhibitor drug sitagliptin employed as positive control. […] Sigmoidal concentration-response curves for DPP-IV % inhibition versus log concentration were plotted using Graphpad prism software, version 5.00 (GraphPad Software, Inc. La Jolla, Calif., USA).

diabetic mice [1] = assay: Fasting blood glucose of diabetic mice treated daily for 6 consecutive days; format: in vivo; conditions: 50 mg/kg oral daily
Description: (§1) The Biochemical and Research Ethical Committee of King Abulaziz University (Jeddah, Saudi Arabia), in accordance with the NIH guidelines, approved all procedures, and the animals received human care during the experimental period. Experiments were carried out using adult male Swiss albino mice (SWR), of 8-9 weeks age and 30-35 g weight. Animals were purchased from the animal house of the King Fahed Medical Research center (KFMRC), Jeddah, Saudi Arabia. Mice were kept at a constant temperature of 24-25° C. and were subjected to a controlled 12 h light-dark cycle; they had free access to water and pelleted diet ad libitum.
(§2) Nicotinamide (210 mg/kg b.w.), dissolved in saline, was injected intraperitoneally 15 min before the intraperitoneal injection of Streptozotocin (STZ) (Sigma, 180 mg/kg b.w.), which was freshly prepared in citrate buffer (pH 4.5). Control animals received both vehicles. During the experimental period, animals' food intake and body weight gain were monitored once a week.
(§3) On the same groups that received the single dose treatment, the tested compounds were given daily by oral gavage for six consecutive days. On day 6, the overnight fasted diabetic mice were pretreated with the 6th oral dose of the tested compounds. Two hours later, an oral glucose was loaded (2 g/kg/10 ml b.w.). Blood glucose levels were determined using the Accu-check Go®. Samples were collected just before drug administration (Fasting Blood glucose), then 2 h after drug treatment and before glucose administration. Samples collection was continued at 20, 40, 60 and 120 min intervals after glucose loading.
The oral glucose tolerance test (OGTT) was performed over six days on diabetic mice. The glucose level was monitored daily (Table 3). The results were analyzed for activities after a single dose (Table 4) and after the 6th dose of the drug (Table 5).

diabetic mice [2] = assay: Oral glucose tolerance test (OGTT) after single dose in diabetic mice; format: in vivo; conditions: for R.P. to Vildagliptin (Single Dose): Table 6, relative potency, B.G. = blood glucose; for AUC % change from diabetic control / AUC Δ from diabetic control / AUC of blood glucose in OGTT (X, mean): single oral dose 50 mg/kg; for AUC of blood glucose in OGTT (X, mean): glucose load 2 g/kg 2 h later, AUC 0-120 min
Description: as §1, §2
Oral glucose tolerance tests were performed in 14 h overnight fasted diabetic mice that were pretreated with a single oral dose of the tested compounds. […] The drugs were suspended in carboxymethyl cellulose (CMC)-Na (1% in distilled water) and the dosing volume was adjusted at 10 mL/kg body weight of the mouse. Then an oral glucose load was administered (2 g/kg) 2 h after drug treatment. Blood glucose levels were determined using the Accu-check Go® (Roche Diagnostics, Michigan, USA). Samples were collected just before drug administration (fasting blood glucose), then at 2 h after drug treatment (immediately before glucose loading). Then blood sample collection was continued at 20, 40, 60 and 120 min intervals after glucose loading.
Animals were distributed between three categories of groups. Each group is composed of six animals (n=6) […] as follows:
Category 1: One group of animals were 14 h overnight-fasted normoglycemic mice and vehicle-treated (1% CMC-Na) at a dose of 10 ml/kg.
Category 2: Another group of animals was overnight fasted diabetic mice received the vehicle (1% CMC-Na) at a dosing volume of 10 ml/kg and served as a negative control.
Category 4: Animals of these groups were overnight fasted diabetic mice received the tested compounds at a dose of 50 mg/kg in 1% CMC (volume of 10 ml/kg).

diabetic mice [3] = assay: Oral glucose tolerance test (OGTT) after multiple doses (6 days) in diabetic mice; format: in vivo; conditions: for AUC % change from diabetic control / AUC Δ from diabetic control / Relative potency to vildagliptin / AUC of blood glucose in OGTT (X, mean): 50 mg/kg oral for 6 days; for Relative potency to vildagliptin: OGTT AUC; for AUC of blood glucose in OGTT (X, mean): glucose load 2 g/kg 2 h after 6th dose, AUC 0-120 min; for R.P. to Vildagliptin (6 Days): Table 6, relative potency, B.G. = blood glucose
Description: as §1, §2, §3

[4] = Table 2, head prints no unit, nM per Table 6, read-out: IC50
[5] = read-out: enzymatic inhibition value / inhibitory activity (IC50)

Row | SMILES | DPP-4 enzyme inhibition activity, in words (DPP-IV enzyme) | IC50 (DPP-IV enzyme; [4]) [nM] | IC50 (DPP-IV enzyme; Table 6, read-out: IC50) [nM] | % Inhibition @ 100 nM (DPP-IV enzyme; compound at 100 nM) [%] | Fasting blood glucose level, Day 1 (diabetic mice [1]) | Fasting blood glucose level, Day 2 (diabetic mice [1]) | Fasting blood glucose level, Day 3 (diabetic mice [1]) | Fasting blood glucose level, Day 4 (diabetic mice [1]) | Fasting blood glucose level, Day 5 (diabetic mice [1]) | Fasting blood glucose level, Day 6 (diabetic mice [1]) | R.P. to Vildagliptin (Single Dose) (diabetic mice [2]) | AUC % change from diabetic control (diabetic mice [2]) [%] | AUC Δ from diabetic control (diabetic mice [2]) [mg·min/dL] | AUC of blood glucose in OGTT (X, mean) (diabetic mice [2]) | AUC % change from diabetic control (diabetic mice [3]) [%] | AUC Δ from diabetic control (diabetic mice [3]) [mg·min/dL] | Relative potency to vildagliptin (diabetic mice [3]) | AUC of blood glucose in OGTT (X, mean) (diabetic mice [3]) | R.P. to Vildagliptin (6 Days) (diabetic mice [3]) | IC50 (DPP-IV enzyme; [5]) [nM] | also measured
1 | O=C(CNC12CC3CC(CC(C3)C1)C2)Nc1cccc(O)c1 [Compound 111] | much better performance | 2.08 | 2.08 | 79.63 | 171.00 mg/dL | 122.40 ± mg/dL | 74.80 ± mg/dL | 153.00 ± mg/dL | 141.20 ± mg/dL | 180.20 mg/dL | 1.52 | −50.39 | 25735 | 25330* mg · dL^−1 · min | −9.820 | 6161 | 0.27 | 47494 mg·min/dL | 0.46 | – | –
2 | O=C(CNC12CC3CC(CC(C3)C1)C2)Nc1ccccn1 [Compound 119, 2-[(adamantan-1-yl)amino]-N-(pyridin-2-yl)acetamide] | best functionality in enzyme inhibition activity | 1.58 | 1.58 | – | 149.60 ± mg/dL | 103.40 ± mg/dL | 104.80 ± mg/dL | 148.60 ± mg/dL | 107.60 ± mg/dL | 118.60 ± mg/dL | 1.417 | −46.99 | 23997 | 27068* mg · dL^−1 · min | −23.26 | 12250 | 0.64 | 40405* mg · dL^−1 · min | 1.26 | 1.6 | DPP-4 enzyme inhibition activity, in words (DPP-IV enzyme; listed as GLP-119): high level of potency both in vitro and in vivo; inhibition at 0.1 µM (DPP-IV enzyme; compound at 100 nM): 58%
3 | N#Cc1cccc(NC(=O)CNC23CC4CC(CC(C4)C2)C3)c1 [Compound 110] | high affinity towards the enzyme | 3.02 | 3.02 | 65.51 | 165.00 ± mg/dL | 107.20 ± mg/dL | 83.00 ± mg/dL | 105.60 ± mg/dL | 111.80 ± mg/dL | 121.40 mg/dL | 1.11 | – | 18801 | 32264* mg · dL^−1 · min | −30.05 | 15825 | 0.83 | 36830* mg · dL^−1 · min | 0.27 | 3 | –
4 | N#Cc1ccc(NC(=O)CNC23CC4CC(CC(C4)C2)C3)cc1 [Compound 118] | high affinity towards the enzyme; also recorded: high DPP-4 inhibition | 6.25 | 6.25 | 81.14 | 151.00 ± mg/dL | 124.00 ± mg/dL | 117.80 ± mg/dL | 141.00 ± mg/dL | 140.50 ± mg/dL | 151.30 ± mg/dL | 1.33 | −44.22 | 22581 | 28484* mg · dL^−1 · min | −54.25 | 28569 | 1.50 | 24086* mg · dL^−1 · min | 0.64 | – | –
5 | O=C(CNC12CC3CC(CC(C3)C1)C2)Nc1ccc(Cl)cc1 [Compound 112] | high DPP-4 inhibition | 7.41 | 7.41 | 61.82 | 159.20 ± mg/dL | 114.40 ± mg/dL | 84.40 ± mg/dL | 115.40 ± mg/dL | 132.40 ± mg/dL | 122.00 ± mg/dL | 1.14 | −37.78 | 19295 | 31770* mg · dL^−1 · min | −16.99 | 8947 | 0.46 | 43708* mg · dL^−1 · min | 0.79 | – | –
